Measured values published in patent US6710049B2, “Azole compounds as anti-fungal agents” (Ranbaxy Laboratories Limited, priority 2000, dated 2004).
Converted amounts (≈) assume the structure as drawn.

Tests used:
[1] = tested on: Penicillium 191; assay: MFC determination (subculture on Sabouraud Dextrose Agar); format: cell-based
Text: (§1) The in-vitro evaluation of the antifungal activity of the compounds can be performed by determining the minimum inhibitory concentration (MIC) as shown in Table 1 which is the concentration of the test compound in Rosewell Park Memorial Institute (RPMI) 1640 liquid medium buffered with 3-(Morpholino)propanesulphonic acid (MOPS) to pH 7, at which there is significant inhibition of the particular fungi. In practice the National Committee for Clinical Laboratory Standard (NCCLS) M27A document for Candida and Cryptococcus and M38P for Aspergillus was used to determine the MIC against yeast and filamentous fungi with suitable modifications for dermatophytes to other filamentous fungi. Three quality control strains were included each time the MIC were determined and readings recorded only when the Quality Control results fell into the acceptable range. After MIC results had been recorded, 100 μl from each of the well showing no growth was spread over Sabouraud Dextrose Agar (SDA) to determine the minimum fungicidal concentration (MFC) as shown in Table 2.

[2] = tested on: A flavus P3 - 1041; assay: as above; format: cell-based
Text: as §1

[3] = tested on: Penicillium H - 1048; assay: as above; format: cell-based
Text: as §1

[4] = tested on: Fusarium 18270; assay: as above; format: cell-based
Text: as §1

[5] = tested on: A flavus E4 - 1042; assay: as above; format: cell-based
Text: as §1

[6] = tested on: Fusarium 29600; assay: as above; format: cell-based
Text: as §1

[7] = tested on: Fusarium (Ceylon); assay: as above; format: cell-based
Text: as §1

[8] = tested on: A flavus E3 - 1044; assay: as above; format: cell-based
Text: as §1

[9] = tested on: Penicillium 31620; assay: as above; format: cell-based
Text: as §1

[10] = tested on: A niger P1 - 1046; assay: as above; format: cell-based
Text: as §1

[11] = tested on: A niger E5 - 1047; assay: as above; format: cell-based
Text: as §1

[12] = tested on: Rhizopus 1052; assay: as above; format: cell-based
Text: as §1

[13] = tested on: Penicillium 1641; assay: as above; format: cell-based
Text: as §1

[14] = tested on: Penicillium 2548; assay: as above; format: cell-based
Text: as §1

[15] = tested on: Penicillium 2306; assay: as above; format: cell-based
Text: as §1

[16] = tested on: C krusei 6258; assay: as above; format: cell-based
Text: as §1

[17] = tested on: Rhizopus (Ceylon); assay: as above; format: cell-based
Text: as §1

[18] = tested on: Alternaria 1051; assay: as above; format: cell-based
Text: as §1

[19] = tested on: A flavus P2 - 1045; assay: as above; format: cell-based
Text: as §1

[20] = tested on: Penicillium I - 1049; assay: as above; format: cell-based
Text: as §1

[21] = tested on: C albicans Y01.19; assay: MIC determination (NCCLS broth method); format: cell-based, Candida albicans
Text: as §1

[22] = tested on: C albicans A-26; assay: MIC determination (NCCLS broth method); format: cell-based, Candida albicans
Text: as §1

[23] = tested on: Penicillium 191; assay: MIC determination (NCCLS broth method); format: cell-based
Text: as §1

[24] = tested on: H capsulatum; assay: MIC determination (NCCLS broth method); format: cell-based
Text: as §1

[25] = tested on: A flavus P3 - 1041; assay: MIC determination (NCCLS broth method); format: cell-based
Text: as §1

[26] = tested on: Penicillium H - 1048; assay: MIC determination (NCCLS broth method); format: cell-based
Text: as §1

[27] = tested on: Fusarium 1827C; assay: MIC determination (NCCLS broth method); format: cell-based
Text: as §1

[28] = tested on: A flavus E4 - 1042; assay: MIC determination (NCCLS broth method); format: cell-based
Text: as §1

[29] = tested on: C parapsilosis 22019; assay: MIC determination (NCCLS broth method); format: cell-based
Text: as §1

[30] = tested on: A flavus E3 - 1044; assay: MIC determination (NCCLS broth method); format: cell-based
Text: as §1

[31] = tested on: Fusarium 1050; assay: MIC determination (NCCLS broth method); format: cell-based
Text: as §1

[32] = tested on: A niger P1 - 1046; assay: MIC determination (NCCLS broth method); format: cell-based
Text: as §1

[33] = tested on: C glabrata 90030; assay: MIC determination (NCCLS broth method); format: cell-based
Text: as §1

[34] = tested on: A niger E5 - 1047; assay: MIC determination (NCCLS broth method); format: cell-based
Text: as §1

[35] = tested on: A flavus E2 - 1043; assay: MIC determination (NCCLS broth method); format: cell-based
Text: as §1

[36] = tested on: Rhizopus 1052; assay: MIC determination (NCCLS broth method); format: cell-based
Text: as §1

[37] = tested on: Penicillium 3162; assay: MIC determination (NCCLS broth method); format: cell-based
Text: as §1

[38] = tested on: Penicillium 1641; assay: MIC determination (NCCLS broth method); format: cell-based
Text: as §1

[39] = tested on: Penicillium 2548; assay: MIC determination (NCCLS broth method); format: cell-based
Text: as §1

[40] = tested on: C krusei 766.1; assay: MIC determination (NCCLS broth method); format: cell-based
Text: as §1

[41] = tested on: Mucor (Ceylon); assay: MIC determination (NCCLS broth method); format: cell-based
Text: as §1

[42] = tested on: Fusarium 2960C; assay: MIC determination (NCCLS broth method); format: cell-based
Text: as §1

[43] = tested on: C krusei 6258; assay: MIC determination (NCCLS broth method); format: cell-based
Text: as §1

[44] = tested on: Rhizopus (Ceylon); assay: MIC determination (NCCLS broth method); format: cell-based
Text: as §1

[45] = tested on: Alternaria 1051; assay: MIC determination (NCCLS broth method); format: cell-based
Text: as §1

[46] = tested on: C tropicalis 750; assay: MIC determination (NCCLS broth method); format: cell-based
Text: as §1

[47] = tested on: A flavus P2 - 1045; assay: MIC determination (NCCLS broth method); format: cell-based
Text: as §1

[48] = tested on: Penicillium I - 1049; assay: MIC determination (NCCLS broth method); format: cell-based
Text: as §1

[49] = read-out: Minimum Fungicidal Concentration (MFC)
[50] = read-out: Minimum Inhibitory Concentration (MIC)

SMILES: C[C@@H](n1ncn(-c2ccc(N3CCN(c4ccc(Cl)cc4)CC3)cc2)c1=S)[C@](O)(Cn1cncn1)c1ccc(F)cc1F [Compound No. 1, 2-{[1R,2R]-2-(2,4-Difluorophenyl)-2-hydroxy-1-methyl-3-(1H-1,2,4-triazole-1-yl)propyl}-4-{4-[4-(4-chlorophenyl)-1-piperizinyl]phenyl}-3-(2H,4H)-1,2,4-thiotriazolone]
- Minimum Fungicidal Concentration (MFC) [1]: 0.125 µg/mL
- Minimum Fungicidal Concentration (MFC) [2]: 0.06 µg/mL
- Minimum Fungicidal Concentration (MFC) [3]: 4 µg/mL
- Minimum Fungicidal Concentration (MFC) ([4]; Fusarium 18270): >128 µg/mL
- Minimum Fungicidal Concentration (MFC) [5]: 0.03 µg/mL
- Minimum Fungicidal Concentration (MFC) ([6]; Fusarium 29600): >128 µg/mL
- Minimum Fungicidal Concentration (MFC) [7]: 32 µg/mL
- Minimum Fungicidal Concentration (MFC) [8]: 0.03 µg/mL
- Minimum Fungicidal Concentration (MFC) [9]: 0.125 µg/mL
- Minimum Fungicidal Concentration (MFC) [10]: 0.06 µg/mL
- Minimum Fungicidal Concentration (MFC) [11]: 0.06 µg/mL
- Minimum Fungicidal Concentration (MFC) [12]: 0.03 µg/mL
- Minimum Fungicidal Concentration (MFC) [13]: 0.25 µg/mL
- Minimum Fungicidal Concentration (MFC) [14]: 0.125 µg/mL
- Minimum Fungicidal Concentration (MFC) [15]: 0.06 µg/mL
- Minimum Fungicidal Concentration (MFC) [16]: 0.016 µg/mL
- Minimum Fungicidal Concentration (MFC) [17]: 0.5 µg/mL
- Minimum Fungicidal Concentration (MFC) [18]: 0.06 µg/mL
- Minimum Fungicidal Concentration (MFC) [19]: 0.03 µg/mL
- Minimum Fungicidal Concentration (MFC) [20]: 1 µg/mL
- Minimum Inhibitory Concentration (MIC) [21]: 0.03 µg/mL
- Minimum Inhibitory Concentration (MIC) [22]: 0.016 µg/mL
- Minimum Inhibitory Concentration (MIC) [23]: 0.06 µg/mL
- Minimum Inhibitory Concentration (MIC) [24]: 0.06 µg/mL
- Minimum Inhibitory Concentration (MIC) [25]: 0.008 µg/mL
- Minimum Inhibitory Concentration (MIC) [26]: 0.03 µg/mL
- Minimum Inhibitory Concentration (MIC) [27]: 2 µg/mL
- Minimum Inhibitory Concentration (MIC) [28]: 0.008 µg/mL
- Minimum Inhibitory Concentration (MIC) [29]: 0.004 µg/mL
- Minimum Inhibitory Concentration (MIC) [30]: 0.016 µg/mL
- Minimum Inhibitory Concentration (MIC) [31]: 1 µg/mL
- Minimum Inhibitory Concentration (MIC) [32]: 0.03 µg/mL
- Minimum Inhibitory Concentration (MIC) [33]: 0.06 µg/mL
- Minimum Inhibitory Concentration (MIC) [34]: 0.03 µg/mL
- Minimum Inhibitory Concentration (MIC) [35]: 0.008 µg/mL
- Minimum Inhibitory Concentration (MIC) [36]: 0.0005 µg/mL
- Minimum Inhibitory Concentration (MIC) [37]: 0.03 µg/mL
- Minimum Inhibitory Concentration (MIC) [38]: 0.25 µg/mL
- Minimum Inhibitory Concentration (MIC) [39]: 0.125 µg/mL
- Minimum Inhibitory Concentration (MIC) [40]: 0.125 µg/mL
- Minimum Inhibitory Concentration (MIC) [41]: 0.004 µg/mL
- Minimum Inhibitory Concentration (MIC) [42]: 2 µg/mL
- Minimum Inhibitory Concentration (MIC) [43]: 0.06 µg/mL
- Minimum Inhibitory Concentration (MIC) [44]: 0.125 µg/mL
- Minimum Inhibitory Concentration (MIC) [45]: 0.03 µg/mL
- Minimum Inhibitory Concentration (MIC) [46]: 0.008 µg/mL
- Minimum Inhibitory Concentration (MIC) [47]: 0.016 µg/mL
- Minimum Inhibitory Concentration (MIC) [48]: 0.03 µg/mL

SMILES: OC(Cn1cncn1)(Cn1cncn1)c1ccc(F)cc1F [Fluconazole]
- MFC [1, 49]: > 128 µg/mL
- MFC [2, 49]: > 128 µg/mL
- MFC ([3]; H1048, read-out: Minimum Fungicidal Concentration (MFC)): > 128 µg/mL
- MFC ([4]; Fusarium, 18270, read-out: Minimum Fungicidal Concentration (MFC)): > 128 µg/mL
- MFC [5, 49]: > 128 µg/mL
- MFC ([6]; Fusarium, 29600, read-out: Minimum Fungicidal Concentration (MFC)): > 128 µg/mL
- MFC [7, 49]: > 128 µg/mL
- MFC [8, 49]: > 128 µg/mL
- MFC [9, 49]: > 128 µg/mL
- MFC [10, 49]: > 128 µg/mL
- MFC [11, 49]: > 128 µg/mL
- MFC [12, 49]: > 128 µg/mL
- MFC [13, 49]: > 128 µg/mL
- MFC [14, 49]: > 128 µg/mL
- MFC [15, 49]: > 128 µg/mL
- MFC [16, 49]: 128 µg/mL (≈ 418 µM)
- MFC [17, 49]: > 128 µg/mL
- MFC [18, 49]: > 128 µg/mL
- MFC [19, 49]: > 128 µg/mL
- MFC ([20]; I1049, read-out: Minimum Fungicidal Concentration (MFC)): > 128 µg/mL
- MIC ([21]; Candida albicans, read-out: Minimum Inhibitory Concentration (MIC)): 8 µg/mL (≈ 26.1 µM)
- MIC ([22]; Candida albicans, A26, read-out: Minimum Inhibitory Concentration (MIC)): 0.5 µg/mL (≈ 1.63 µM)
- MIC [23, 50]: 64 µg/mL (≈ 209 µM)
- MIC [24, 50]: 4 µg/mL (≈ 13.1 µM)
- MIC [25, 50]: > 128 µg/mL
- MIC ([26]; H1048, read-out: Minimum Inhibitory Concentration (MIC)): > 128 µg/mL
- MIC [27, 50]: > 128 µg/mL
- MIC [28, 50]: > 128 µg/mL
- MIC [29, 50]: 2 µg/mL (≈ 6.53 µM)
- MIC [30, 50]: > 128 µg/mL
- MIC [31, 50]: > 128 µg/mL
- MIC [32, 50]: 128 µg/mL (≈ 418 µM)
- MIC [33, 50]: 4 µg/mL (≈ 13.1 µM)
- MIC [34, 50]: > 128 µg/mL
- MIC [35, 50]: > 128 µg/mL
- MIC [36, 50]: > 128 µg/mL
- MIC [37, 50]: > 128 µg/mL
- MIC [38, 50]: 64 µg/mL (≈ 209 µM)
- MIC [39, 50]: 128 µg/mL (≈ 418 µM)
- MIC [40, 50]: 128 µg/mL (≈ 418 µM)
- MIC [41, 50]: > 128 µg/mL
- MIC [42, 50]: > 128 µg/mL
- MIC [43, 50]: 32 µg/mL (≈ 104 µM)
- MIC [44, 50]: > 128 µg/mL
- MIC [45, 50]: > 128 µg/mL
- MIC [46, 50]: 0.5 µg/mL (≈ 1.63 µM)
- MIC [47, 50]: > 128 µg/mL
- MIC ([48]; I1049, read-out: Minimum Inhibitory Concentration (MIC)): > 128 µg/mL
